Results as given in US9409966B2, “Glucagon-like peptide-1 derivatives and their pharmaceutical use” (priority 2007, dated 2016).
*1 amine or outer side, *2 acyl side, *3 side chain or, on linkers, in order; H or OH if unused. Where a SMILES comes first, the peptide text is derived from it. Side-chain parts run from the residue outwards. [ ]: non-standard residue; d: D form. The star is where a group is joined. C20 diacid = O=C(O)CCCCCCCCCCCCCCCCCCC(=O)*; βAsp = O=C(O)[C@H](CC(=O)[*:2])N[*:1]; AEEA = NCCOCCOCC(=O)O; Aib = CC(C)(N)C(=O)O; Inp = O=C(O)C1CCNCC1

Assays:
[1] = biological target: T1, human GLP-1 receptor (Homo sapiens, UniProt P43220); assay: Stimulation of cAMP formation in a cell line expressing the cloned human GLP-1 receptor; assay type: biochemical; details: cAMP production, purified plasma membranes from BHK467-12A (tk-ts13), AlphaScreen cAMP Assay Kit; read-out: Potency [EC50/nM]
T1 construct: expressed in transfected cells; host or cells: BHK467-12A (tk-ts13) baby hamster kidney cells; purified plasma membranes
T1 sequence (P43220 24-463): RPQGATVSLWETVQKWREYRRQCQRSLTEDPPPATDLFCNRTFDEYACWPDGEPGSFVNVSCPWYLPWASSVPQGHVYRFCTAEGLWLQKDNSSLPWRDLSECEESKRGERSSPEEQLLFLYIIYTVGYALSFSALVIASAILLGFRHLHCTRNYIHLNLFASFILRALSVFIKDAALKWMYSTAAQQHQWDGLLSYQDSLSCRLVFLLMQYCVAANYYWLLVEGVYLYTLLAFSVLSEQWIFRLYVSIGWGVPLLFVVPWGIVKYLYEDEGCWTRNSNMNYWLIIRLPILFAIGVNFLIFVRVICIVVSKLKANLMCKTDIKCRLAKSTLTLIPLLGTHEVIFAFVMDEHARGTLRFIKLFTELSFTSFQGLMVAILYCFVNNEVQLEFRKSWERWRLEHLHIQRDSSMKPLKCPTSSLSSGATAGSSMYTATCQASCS
Experimental: A stable transfected cell line has been prepared at NN A/S, Denmark, and a high expressing clone was selected for screening. The cells were grown at 5% CO2 in DMEM, 5% FCS, 1% Pen/Strep (Penicillin/Streptomycin) and 0.5 mg/ml of the selection marker G418.
Cells at approximate 80% confluence were washed 2× with PBS (Phosphate Buffered Saline) and harvested with Versene (aqueous solution of the tetrasodium salt of ethylenediaminetetraacetic acid), centrifuged 5 min at 1000 rpm and the supernatant removed. The additional steps were all made on ice. […] Suspension in Buffer 2, homogenization and centrifugation was repeated once and the membranes were resuspended in Buffer 2 and ready for further analysis or stored at −80° C.
The functional receptor assay was carried out by measuring the peptide induced cAMP production by The AlphaScreen Technology. […] The capture of cAMP is achieved by using a specific antibody conjugated to acceptor beads. Formed cAMP was counted and measured at a AlphaFusion Microplate Analyzer. The EC50 values were calculated using the Graph-Pad Prisme software (version 5).

[2] = biological target: human serum albumin (HSA) (Homo sapiens, UniProt P02768); assay: Albumin binding affinity, competition scintillation proximity assay (SPA)
Chain of human serum albumin (HSA) (P02768 25-609): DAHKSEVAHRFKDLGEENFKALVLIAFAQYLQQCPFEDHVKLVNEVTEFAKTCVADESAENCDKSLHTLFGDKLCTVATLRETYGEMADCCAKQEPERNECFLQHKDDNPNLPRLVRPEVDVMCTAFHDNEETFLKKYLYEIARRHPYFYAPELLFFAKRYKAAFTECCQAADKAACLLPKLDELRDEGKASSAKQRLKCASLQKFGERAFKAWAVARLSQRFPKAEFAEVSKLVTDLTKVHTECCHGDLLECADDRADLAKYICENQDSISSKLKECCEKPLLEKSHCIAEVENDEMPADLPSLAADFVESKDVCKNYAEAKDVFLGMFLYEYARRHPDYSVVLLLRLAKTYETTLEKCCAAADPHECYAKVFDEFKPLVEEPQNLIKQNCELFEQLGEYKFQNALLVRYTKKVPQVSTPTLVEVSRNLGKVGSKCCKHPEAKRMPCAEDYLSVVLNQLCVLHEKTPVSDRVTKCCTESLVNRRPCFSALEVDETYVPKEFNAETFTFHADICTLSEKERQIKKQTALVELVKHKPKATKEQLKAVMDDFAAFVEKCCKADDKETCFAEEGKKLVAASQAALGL
Experimental: Streptavidin-SPA beads (GE Healthcare RPNQ0009) were incubated with biotinylated HSA for 5 hours. The beads were washed with buffer to remove unbound HSA. […] After 20 hours of gentle rocking at room temperature the plates were centrifuged and counted on a TopCounter.

| Compound | EC50 [1] | EC50 [2] |
| --- | --- | --- |
| CC[C@H](C)[C@H](NC(=O)[C@H](Cc1ccccc1)NC(=O)[C@H](CCC(=O)O)NC(=O)[C@H](CCCNC(=N)N)NC(=O)[C@H](C)NC(=O)[C@H](C)NC(=O)[C@H](CCC(N)=O)NC(=O)[C@H](CCC(=O)O)NC(=O)[C@H](CCC(=O)O)NC(=O)[C@H](CC(C)C)NC(=O)[C@H](Cc1ccc(O)cc1)NC(=O)[C@H](CO)NC(=O)[C@H](CO)NC(=O)[C@@H](NC(=O)[C@H](CC(=O)O)NC(=O)[C@H](CO)NC(=O)[C@@H](NC(=O)[C@H](Cc1ccccc1)NC(=O)[C@@H](NC(=O)CNC(=O)[C@H](CCC(=O)O)NC(=O)[C@H](C)NC(=O)CCc1c[nH]cn1)[C@@H](C)O)[C@@H](C)O)C(C)C)C(=O)N[C@@H](C)C(=O)N[C@@H](Cc1c[nH]c2ccccc12)C(=O)N[C@@H](CC(C)C)C(=O)N[C@H](C(=O)N[C@@H](CCCNC(=N)N)C(=O)NCC(=O)N[C@@H](CCCNC(=N)N)C(=O)N[C@@H](CCCCNC(=O)COCCOCCNC(=O)COCCOCCNC(=O)C[C@@H](NC(=O)C1CCN(C(=O)CCCCCCCCCCCCCCCCCCC(=O)O)CC1)C(=O)O)C(N)=O)C(C)C [Example 1, N-epsilon37{2-[2-(2-{2-[2-((R)-3-carboxy-3-{[1-(19-carboxynonadecanoyl)piperidine-4-carbonyl]amino}propionylamino)ethoxy]ethoxy}acetylamino)ethoxy]ethoxy}acetyl [desaminoHis7,Glu22,Arg26,Arg34,Lys37]GLP-1(7-37)amide] | 0.37 nM | 400 to 800 nM |
| CC[C@H](C)[C@H](NC(=O)[C@H](Cc1ccccc1)NC(=O)[C@H](CCC(=O)O)NC(=O)[C@H](CCCNC(=N)N)NC(=O)[C@H](C)NC(=O)[C@H](C)NC(=O)[C@H](CCC(N)=O)NC(=O)[C@H](CCC(=O)O)NC(=O)[C@H](CCC(=O)O)NC(=O)[C@H](CC(C)C)NC(=O)[C@H](Cc1ccc(O)cc1)NC(=O)[C@H](CO)NC(=O)[C@H](CO)NC(=O)[C@@H](NC(=O)[C@H](CC(=O)O)NC(=O)[C@H](CO)NC(=O)[C@@H](NC(=O)[C@H](Cc1ccccc1)NC(=O)[C@@H](NC(=O)CNC(=O)[C@H](CCC(=O)O)NC(=O)C(C)(C)NC(=O)[C@@H](N)Cc1c[nH]cn1)[C@@H](C)O)[C@@H](C)O)C(C)C)C(=O)N[C@@H](C)C(=O)N[C@@H](Cc1c[nH]c2ccccc12)C(=O)N[C@@H](CC(C)C)C(=O)N[C@H](C(=O)N[C@@H](CCCNC(=N)N)C(=O)NCC(=O)N[C@@H](CCCNC(=N)N)C(=O)N[C@@H](CCCCNC(=O)COCCOCCNC(=O)COCCOCCNC(=O)C[C@H](NC(=O)C1CCN(C(=O)CCCCCCCCCCCCCCCCCCC(=O)O)CC1)C(=O)O)C(N)=O)C(C)C [Example 2, N-epsilon37{2-[2-(2-{2-[2-((S)-3-carboxy-3-{[1-(19-carboxynonadecanoyl)piperidine-4-carbonyl]amino}propionylamino)ethoxy]ethoxy}acetylamino)ethoxy]ethoxy}acetyl [Aib8,Glu22,Arg26,Arg34,Lys37]GLP-1-(7-37)amide] | 0.2 nM | 200 to 400 nM |
| CC[C@H](C)[C@H](NC(=O)[C@H](Cc1ccccc1)NC(=O)[C@H](CCC(=O)O)NC(=O)[C@H](CCCNC(=N)N)NC(=O)[C@H](C)NC(=O)[C@H](C)NC(=O)[C@H](CCC(N)=O)NC(=O)[C@H](CCC(=O)O)NC(=O)[C@H](CCC(=O)O)NC(=O)[C@H](CC(C)C)NC(=O)[C@H](Cc1ccc(O)cc1)NC(=O)[C@H](CO)NC(=O)[C@H](CO)NC(=O)[C@@H](NC(=O)[C@H](CC(=O)O)NC(=O)[C@H](CO)NC(=O)[C@@H](NC(=O)[C@H](Cc1ccccc1)NC(=O)[C@@H](NC(=O)CNC(=O)[C@H](CCC(=O)O)NC(=O)C(C)(C)NC(=O)[C@@H](N)Cc1c[nH]cn1)[C@@H](C)O)[C@@H](C)O)C(C)C)C(=O)N[C@@H](C)C(=O)N[C@@H](CCCCNC(=O)COCCOCCNC(=O)COCCOCCNC(=O)C[C@H](NC(=O)C1CCN(C(=O)CCCCCCCCCCCCCCCCCCC(=O)O)CC1)C(=O)O)C(=O)N[C@@H](CC(C)C)C(=O)N[C@H](C(=O)N[C@@H](CCCCN)C(=O)NCC(=O)N[C@@H](CCCNC(=N)N)C(=O)NCC(=O)O)C(C)C [Example 5, N-epsilon31{2-[2-(2-{2-[2-((S)-3-carboxy-3-{[1-(19-carboxynonadecanoyl)piperidine-4-carbonyl]amino}propionylamino)ethoxy]ethoxy}acetylamino)ethoxy]ethoxy}acetyl [Aib8,Glu22,Arg26,Lys31]GLP-1-(7-37)] (H-H[Aib]EGTFTSDVSSYLEEQAAREFIAK([AEEA-AEEA-βAsp-Inp-C20 diacid])LVKGRG-OH) | 0.2 nM | 100 to 150 nM |
| CC[C@H](C)[C@H](NC(=O)[C@H](Cc1ccccc1)NC(=O)[C@H](CCC(=O)O)NC(=O)[C@H](CCCNC(=N)N)NC(=O)[C@H](C)NC(=O)[C@H](C)NC(=O)[C@H](CCC(N)=O)NC(=O)[C@H](CCC(=O)O)NC(=O)[C@H](CCC(=O)O)NC(=O)[C@H](CC(C)C)NC(=O)[C@H](Cc1ccc(O)cc1)NC(=O)[C@H](CO)NC(=O)[C@H](CO)NC(=O)[C@@H](NC(=O)[C@H](CC(=O)O)NC(=O)[C@H](CO)NC(=O)[C@@H](NC(=O)[C@H](Cc1ccccc1)NC(=O)[C@@H](NC(=O)CNC(=O)[C@H](CCC(=O)O)NC(=O)[C@H](C)NC(=O)CCc1c[nH]cn1)[C@@H](C)O)[C@@H](C)O)C(C)C)C(=O)N[C@@H](C)C(=O)N[C@@H](Cc1c[nH]c2ccccc12)C(=O)N[C@@H](CC(C)C)C(=O)N[C@H](C(=O)N[C@@H](CCCNC(=N)N)C(=O)NCC(=O)N[C@@H](CCCNC(=N)N)C(=O)N[C@@H](CCCCNC(=O)COCCOCCNC(=O)CC[C@H](NC(=O)CC[C@H](NC(=O)CCCCCCCCCCCNC(=O)CCCS(=O)(=O)NC(=O)CCCCCCCCCCCCCCCc1nnn(C(C)(C)C)n1)C(=O)O)C(=O)O)C(=O)O)C(C)C [Example 26, N-epsilon37-{2-[2-(2-{(S)-4-[(S)-4-(12-{4-[16-(2-tert-Butyl-2H-tetrazol-5-yl)-hexadecanoylsulfamoyl]butyrylamino}dodecanoylamino)-4-carboxybutyrylamino]-4-carboxybutyrylamino}ethoxy)ethoxy]acetyl}[DesaminoHis7,Glu22,Arg26,Arg34,Lys37] GLP-1 (7-37)] | 0.25 nM |  |
| CC[C@H](C)[C@H](NC(=O)[C@H](Cc1ccccc1)NC(=O)[C@H](CCC(=O)O)NC(=O)[C@H](CCCNC(=N)N)NC(=O)[C@H](C)NC(=O)[C@H](C)NC(=O)[C@H](CCC(N)=O)NC(=O)[C@H](CCC(=O)O)NC(=O)[C@H](CCC(=O)O)NC(=O)[C@H](CC(C)C)NC(=O)[C@H](Cc1ccc(O)cc1)NC(=O)[C@H](CO)NC(=O)[C@H](CO)NC(=O)[C@@H](NC(=O)[C@H](CC(=O)O)NC(=O)[C@H](CO)NC(=O)[C@@H](NC(=O)[C@H](Cc1ccccc1)NC(=O)[C@@H](NC(=O)CNC(=O)[C@H](CCC(=O)O)NC(=O)C(C)(C)NC(=O)[C@@H](N)Cc1c[nH]cn1)[C@@H](C)O)[C@@H](C)O)C(C)C)C(=O)N[C@@H](C)C(=O)N[C@@H](Cc1c[nH]c2ccccc12)C(=O)N[C@@H](CC(C)C)C(=O)N[C@H](C(=O)N[C@@H](CCCNC(=N)N)C(=O)NCC(=O)N[C@@H](CCCNC(=N)N)C(=O)N[C@@H](CCCCNC(=O)CC[C@H](NC(=O)COCCOCCNC(=O)COCCOCCNC(=O)CCCCCCCCCCCCCCCCC(=O)O)C(=O)O)C(=O)O)C(C)C [Example 38, N-epsilon-37-[(S)-4-carboxy-4-(2-{2-[2-(2-{2-[2-(17-carboxyheptadecanoylamino)ethoxy]ethoxy}acetylamino)ethoxy]ethoxy}acetylamino)butyryl] [Aib8,Glu22,Arg26,34,Lys37] GLP-1 (7-37)] | 0.07 nM |  |
